Assay results published in PMC4286029 (Inflammation Research, 2014).

Tests used:
[1] = target: T1, PKBα (Homo sapiens, UniProt P31749); experiment: KinaseProfiler selectivity: PKBα; format: biochemical
T1 construct: purchased Millipore Co. Ltd. (KinaseProfiler service)
Procedure: (§1) […]; The selectivity of JTE-052 for other kinases was assessed using KinaseProfiler™ (Millipore Co. Ltd.). […].

[2] = system: human monocytes; experiment: GM-CSF-induced TNF-α production from monocytes (ELISA); conditions: Monocyte, read-out: IC50, GM-CSF enhancement of TNF-α production upon LPS stimulation in monocytes
Procedure: The cells were then cultured with 0.1 ng/mL lipopolysaccharide (LPS) for an additional 6 h at 37 °C. The supernatants were collected, and secretion of TNF-α was measured by ELISA.

[3] = target: T2, CHK1 (Homo sapiens, UniProt O14757); experiment: KinaseProfiler selectivity: CHK1; format: biochemical
T2 construct: purchased Millipore Co. Ltd. (KinaseProfiler service)
Procedure: as §1

[4] = target: T3, IGF-1R (Homo sapiens, UniProt P08069); experiment: KinaseProfiler selectivity: IGF-1R; format: biochemical
T3 construct: purchased Millipore Co. Ltd. (KinaseProfiler service)
Procedure: as §1

[5] = target: T4, PKCζ (Homo sapiens, UniProt Q05513); experiment: KinaseProfiler selectivity: PKCζ; format: biochemical
T4 construct: purchased Millipore Co. Ltd. (KinaseProfiler service)
Procedure: as §1

[6] = target: T5, c-RAF (Homo sapiens, UniProt P04049); experiment: KinaseProfiler selectivity: c-RAF; format: biochemical
T5 construct: purchased Millipore Co. Ltd. (KinaseProfiler service)
Procedure: as §1

[7] = target: T6, SAPK2b (Homo sapiens, UniProt Q15759); experiment: KinaseProfiler selectivity: SAPK2b; format: biochemical
T6 construct: purchased Millipore Co. Ltd. (KinaseProfiler service)
Procedure: as §1

[8] = target: T7, Flt1 (Homo sapiens, UniProt P17948); experiment: KinaseProfiler selectivity: Flt1; format: biochemical
T7 construct: purchased Millipore Co. Ltd. (KinaseProfiler service)
Procedure: as §1

[9] = target: T8, Flt3 (Homo sapiens, UniProt P36888); experiment: KinaseProfiler selectivity: Flt3; format: biochemical
T8 construct: purchased Millipore Co. Ltd. (KinaseProfiler service)
Procedure: as §1

[10] = target: T9, Syk (Homo sapiens, UniProt P43405); experiment: KinaseProfiler selectivity: Syk; format: biochemical
T9 construct: purchased Millipore Co. Ltd. (KinaseProfiler service)
Procedure: as §1

[11] = target: T10, Fyn (Homo sapiens, UniProt P06241); experiment: KinaseProfiler selectivity: Fyn; format: biochemical
T10 construct: purchased Millipore Co. Ltd. (KinaseProfiler service)
Procedure: as §1

[12] = target: T11, CSK (Homo sapiens, UniProt P41240); experiment: KinaseProfiler selectivity: CSK; format: biochemical
T11 construct: purchased Millipore Co. Ltd. (KinaseProfiler service)
Procedure: as §1

[13] = target: T12, CK2 (Homo sapiens, UniProt P68400); experiment: KinaseProfiler selectivity: CK2; format: biochemical
T12 construct: purchased Millipore Co. Ltd. (KinaseProfiler service)
Procedure: as §1

[14] = target: T13, PDGFRβ (Homo sapiens, UniProt P09619); experiment: KinaseProfiler selectivity: PDGFRβ; format: biochemical
T13 construct: purchased Millipore Co. Ltd. (KinaseProfiler service)
Procedure: as §1

[15] = target: T14, Met (Homo sapiens, UniProt P08581); experiment: KinaseProfiler selectivity: Met; format: biochemical
T14 construct: purchased Millipore Co. Ltd. (KinaseProfiler service)
Procedure: as §1

[16] = target: T15, IR (Homo sapiens, UniProt P06213); experiment: KinaseProfiler selectivity: IR; format: biochemical
T15 construct: purchased Millipore Co. Ltd. (KinaseProfiler service)
T15 sequence (P06213 28-1382): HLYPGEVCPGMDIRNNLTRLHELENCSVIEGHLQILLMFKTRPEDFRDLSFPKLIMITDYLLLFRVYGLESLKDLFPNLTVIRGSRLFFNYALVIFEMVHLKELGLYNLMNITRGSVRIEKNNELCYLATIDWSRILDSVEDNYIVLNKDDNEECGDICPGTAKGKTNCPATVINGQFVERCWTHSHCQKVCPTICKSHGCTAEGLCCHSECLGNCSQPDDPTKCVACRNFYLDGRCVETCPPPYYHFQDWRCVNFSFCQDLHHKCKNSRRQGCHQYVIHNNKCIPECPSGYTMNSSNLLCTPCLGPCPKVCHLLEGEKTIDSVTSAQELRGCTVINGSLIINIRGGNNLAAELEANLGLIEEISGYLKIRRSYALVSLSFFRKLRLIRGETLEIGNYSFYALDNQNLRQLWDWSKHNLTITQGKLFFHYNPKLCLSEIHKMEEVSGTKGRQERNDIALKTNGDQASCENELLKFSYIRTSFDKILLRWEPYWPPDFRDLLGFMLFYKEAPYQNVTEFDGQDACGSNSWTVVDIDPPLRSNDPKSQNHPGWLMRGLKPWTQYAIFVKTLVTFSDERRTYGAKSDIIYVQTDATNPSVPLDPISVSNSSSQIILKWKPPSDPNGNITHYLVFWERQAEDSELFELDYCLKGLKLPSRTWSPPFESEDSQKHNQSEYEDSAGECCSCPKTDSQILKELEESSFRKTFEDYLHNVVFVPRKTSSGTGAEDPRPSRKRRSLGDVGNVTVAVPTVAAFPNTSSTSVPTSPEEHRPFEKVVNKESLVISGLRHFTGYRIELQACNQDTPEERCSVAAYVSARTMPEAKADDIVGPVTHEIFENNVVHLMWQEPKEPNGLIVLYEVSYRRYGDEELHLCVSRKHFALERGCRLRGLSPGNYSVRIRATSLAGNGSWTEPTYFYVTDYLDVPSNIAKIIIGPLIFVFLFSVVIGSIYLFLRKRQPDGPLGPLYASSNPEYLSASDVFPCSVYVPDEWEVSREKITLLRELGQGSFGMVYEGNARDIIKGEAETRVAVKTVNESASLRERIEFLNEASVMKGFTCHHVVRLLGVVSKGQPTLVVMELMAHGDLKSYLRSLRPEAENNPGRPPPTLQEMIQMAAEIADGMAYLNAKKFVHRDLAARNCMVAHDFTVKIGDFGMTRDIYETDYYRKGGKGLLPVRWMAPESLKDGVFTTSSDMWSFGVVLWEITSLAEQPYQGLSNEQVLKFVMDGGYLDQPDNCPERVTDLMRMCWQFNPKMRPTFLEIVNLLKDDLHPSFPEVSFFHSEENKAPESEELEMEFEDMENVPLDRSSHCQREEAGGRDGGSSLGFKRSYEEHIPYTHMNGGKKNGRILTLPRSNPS
Procedure: as §1

[17] = target: T16, MSK1 (Homo sapiens, UniProt O75582); experiment: KinaseProfiler selectivity: MSK1; format: biochemical
T16 construct: purchased Millipore Co. Ltd. (KinaseProfiler service)
Procedure: as §1

[18] = target: T17, SAPK3 (Homo sapiens, UniProt P53778); experiment: KinaseProfiler selectivity: SAPK3; format: biochemical
T17 construct: purchased Millipore Co. Ltd. (KinaseProfiler service)
T17 sequence (P53778 whole entry, species assumed): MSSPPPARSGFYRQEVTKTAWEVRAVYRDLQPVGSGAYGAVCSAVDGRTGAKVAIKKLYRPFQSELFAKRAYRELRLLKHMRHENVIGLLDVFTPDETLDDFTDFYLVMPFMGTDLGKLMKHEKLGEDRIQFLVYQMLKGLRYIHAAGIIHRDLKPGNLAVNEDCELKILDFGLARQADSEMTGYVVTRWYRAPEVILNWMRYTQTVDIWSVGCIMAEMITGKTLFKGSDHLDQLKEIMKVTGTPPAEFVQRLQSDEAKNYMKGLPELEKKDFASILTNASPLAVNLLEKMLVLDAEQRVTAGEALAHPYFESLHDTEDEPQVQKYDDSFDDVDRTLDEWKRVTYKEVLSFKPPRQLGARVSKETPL
Procedure: as §1

[19] = target: T18, MEK1 (Homo sapiens, UniProt Q02750); experiment: KinaseProfiler selectivity: MEK1; format: biochemical
T18 construct: purchased Millipore Co. Ltd. (KinaseProfiler service)
Procedure: as §1

[20] = target: T19, Abl (Homo sapiens, UniProt P00519); experiment: KinaseProfiler selectivity: Abl; format: biochemical
T19 construct: purchased Millipore Co. Ltd. (KinaseProfiler service)
Procedure: as §1

[21] = target: T20, JNK2α2 (Homo sapiens, UniProt P45984); experiment: KinaseProfiler selectivity: JNK2α2; format: biochemical
T20 construct: purchased Millipore Co. Ltd. (KinaseProfiler service)
T20 sequence (P45984 whole entry): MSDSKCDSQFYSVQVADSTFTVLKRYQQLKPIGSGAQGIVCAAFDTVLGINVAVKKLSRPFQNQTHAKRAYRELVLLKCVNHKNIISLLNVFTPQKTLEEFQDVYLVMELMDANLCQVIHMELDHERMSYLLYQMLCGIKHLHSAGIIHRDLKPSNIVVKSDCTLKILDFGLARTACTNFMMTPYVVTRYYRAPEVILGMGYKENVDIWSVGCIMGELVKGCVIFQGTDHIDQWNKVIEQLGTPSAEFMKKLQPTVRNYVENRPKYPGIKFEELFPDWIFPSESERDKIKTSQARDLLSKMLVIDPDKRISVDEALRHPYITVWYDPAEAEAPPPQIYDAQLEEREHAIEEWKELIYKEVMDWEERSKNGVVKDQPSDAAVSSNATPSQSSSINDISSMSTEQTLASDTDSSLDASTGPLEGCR
Procedure: as §1

[22] = target: T21, PKA (Homo sapiens, UniProt P17612); experiment: KinaseProfiler selectivity: PKA; format: biochemical
T21 construct: purchased Millipore Co. Ltd. (KinaseProfiler service)
Procedure: as §1

[23] = target: T22, cKit (Homo sapiens, UniProt P10721); experiment: KinaseProfiler selectivity: cKit; format: biochemical
T22 construct: purchased Millipore Co. Ltd. (KinaseProfiler service)
T22 sequence (P10721 26-976): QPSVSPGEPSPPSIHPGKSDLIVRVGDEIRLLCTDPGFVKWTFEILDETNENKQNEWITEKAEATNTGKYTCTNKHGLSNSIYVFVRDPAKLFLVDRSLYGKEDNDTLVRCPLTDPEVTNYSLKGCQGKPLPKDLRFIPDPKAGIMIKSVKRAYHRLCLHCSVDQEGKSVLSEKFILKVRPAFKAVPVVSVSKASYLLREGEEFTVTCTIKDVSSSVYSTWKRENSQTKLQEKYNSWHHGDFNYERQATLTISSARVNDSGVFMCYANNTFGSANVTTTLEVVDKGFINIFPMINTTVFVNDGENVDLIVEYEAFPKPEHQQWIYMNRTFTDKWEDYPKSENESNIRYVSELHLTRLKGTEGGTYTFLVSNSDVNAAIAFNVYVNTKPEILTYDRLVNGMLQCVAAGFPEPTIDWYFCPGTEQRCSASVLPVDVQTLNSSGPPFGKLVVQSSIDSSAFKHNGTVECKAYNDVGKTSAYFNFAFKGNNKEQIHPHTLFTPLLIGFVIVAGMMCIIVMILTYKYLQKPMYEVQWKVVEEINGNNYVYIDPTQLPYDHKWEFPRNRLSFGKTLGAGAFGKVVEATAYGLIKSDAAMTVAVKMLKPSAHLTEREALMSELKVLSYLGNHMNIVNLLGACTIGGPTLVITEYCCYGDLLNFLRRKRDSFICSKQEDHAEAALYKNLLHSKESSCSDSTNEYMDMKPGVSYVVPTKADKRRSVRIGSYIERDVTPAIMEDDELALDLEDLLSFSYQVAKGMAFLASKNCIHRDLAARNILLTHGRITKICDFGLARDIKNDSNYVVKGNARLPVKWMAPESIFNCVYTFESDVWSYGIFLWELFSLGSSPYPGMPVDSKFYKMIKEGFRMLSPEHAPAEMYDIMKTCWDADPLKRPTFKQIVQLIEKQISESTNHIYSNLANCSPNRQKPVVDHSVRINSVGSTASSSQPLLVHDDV
Procedure: as §1

[24] = target: T23, Lyn (Homo sapiens, UniProt P07948); experiment: KinaseProfiler selectivity: Lyn; format: biochemical
T23 construct: purchased Millipore Co. Ltd. (KinaseProfiler service)
Procedure: as §1

[25] = target: T24, PDGFRα (Homo sapiens, UniProt P16234); experiment: KinaseProfiler selectivity: PDGFRα; format: biochemical
T24 construct: purchased Millipore Co. Ltd. (KinaseProfiler service)
Procedure: as §1

[26] = target: T25, CDK2/cyclinA (Homo sapiens, UniProt P24941); experiment: KinaseProfiler selectivity: CDK2/cyclinA; format: biochemical
T25 construct: purchased Millipore Co. Ltd. (KinaseProfiler service)
Procedure: as §1

[27] = target: T26, MAPK2 (Homo sapiens, UniProt P28482); experiment: KinaseProfiler selectivity: MAPK2; format: biochemical
T26 construct: purchased Millipore Co. Ltd. (KinaseProfiler service)
Procedure: as §1

[28] = target: T27, ROCK-II (Homo sapiens, UniProt O75116); experiment: KinaseProfiler selectivity: ROCK-II; format: biochemical
T27 construct: purchased Millipore Co. Ltd. (KinaseProfiler service)
Procedure: as §1

[29] = target: T28, PDK1 (Homo sapiens, UniProt O15530); experiment: KinaseProfiler selectivity: PDK1; format: biochemical
T28 construct: purchased Millipore Co. Ltd. (KinaseProfiler service)
Procedure: as §1

[30] = target: T29, MAPKAP-K2 (Homo sapiens, UniProt P49137); experiment: KinaseProfiler selectivity: MAPKAP-K2; format: biochemical
T29 construct: purchased Millipore Co. Ltd. (KinaseProfiler service)
Procedure: as §1

[31] = target: T30, PKCγ (Homo sapiens, UniProt P05129); experiment: KinaseProfiler selectivity: PKCγ; format: biochemical
T30 construct: purchased Millipore Co. Ltd. (KinaseProfiler service)
Procedure: as §1

[32] = system: kinases in KinaseProfiler; experiment: KinaseProfiler panel as a whole (selectivity for other kinases); format: biochemical; conditions: concentration of 1,000 nM
Procedure: as §1

[33] = Cytotoxicity: fibroblast (NHLF) proliferation ([3H]thymidine); conditions: human, normal human lung fibroblasts (NHLF)
Procedure: For determination of cytotoxicity, fibroblast proliferation was measured.

[34] = target: T31, SGK (Homo sapiens, UniProt O00141); experiment: KinaseProfiler selectivity: SGK; format: biochemical
T31 construct: purchased Millipore Co. Ltd. (KinaseProfiler service)
Procedure: as §1

[35] = target: T32, FGFR1 (Homo sapiens, UniProt P11362); experiment: KinaseProfiler selectivity: FGFR1; format: biochemical
T32 construct: purchased Millipore Co. Ltd. (KinaseProfiler service)
Procedure: as §1

[36] = target: T33, PKCβI (Homo sapiens, UniProt P05771); experiment: KinaseProfiler selectivity: PKCβI; format: biochemical
T33 construct: purchased Millipore Co. Ltd. (KinaseProfiler service)
Procedure: as §1

[37] = target: T34, p70S6 K (Homo sapiens, UniProt P23443); experiment: KinaseProfiler selectivity: p70S6 K; format: biochemical
T34 construct: purchased Millipore Co. Ltd. (KinaseProfiler service)
T34 sequence (P23443 whole entry): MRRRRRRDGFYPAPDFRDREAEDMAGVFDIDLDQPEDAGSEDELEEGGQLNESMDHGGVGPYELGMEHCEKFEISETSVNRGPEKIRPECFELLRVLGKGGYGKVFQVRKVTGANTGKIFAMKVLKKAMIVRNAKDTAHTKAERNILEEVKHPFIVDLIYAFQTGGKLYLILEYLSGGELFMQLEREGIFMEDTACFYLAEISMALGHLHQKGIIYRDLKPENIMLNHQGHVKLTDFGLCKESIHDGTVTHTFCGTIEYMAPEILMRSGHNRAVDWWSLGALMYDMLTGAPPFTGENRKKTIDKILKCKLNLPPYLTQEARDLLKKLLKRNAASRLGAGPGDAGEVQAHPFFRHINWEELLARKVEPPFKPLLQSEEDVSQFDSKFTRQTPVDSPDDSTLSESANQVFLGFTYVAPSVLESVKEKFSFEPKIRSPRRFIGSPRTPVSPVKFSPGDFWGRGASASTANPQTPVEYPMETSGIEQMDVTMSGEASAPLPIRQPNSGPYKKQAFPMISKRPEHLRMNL
Procedure: as §1

[38] = target: T35, KDR (Homo sapiens, UniProt P35968); experiment: KinaseProfiler selectivity: KDR; format: biochemical
T35 construct: purchased Millipore Co. Ltd. (KinaseProfiler service)
T35 sequence (P35968 20-1356, species assumed): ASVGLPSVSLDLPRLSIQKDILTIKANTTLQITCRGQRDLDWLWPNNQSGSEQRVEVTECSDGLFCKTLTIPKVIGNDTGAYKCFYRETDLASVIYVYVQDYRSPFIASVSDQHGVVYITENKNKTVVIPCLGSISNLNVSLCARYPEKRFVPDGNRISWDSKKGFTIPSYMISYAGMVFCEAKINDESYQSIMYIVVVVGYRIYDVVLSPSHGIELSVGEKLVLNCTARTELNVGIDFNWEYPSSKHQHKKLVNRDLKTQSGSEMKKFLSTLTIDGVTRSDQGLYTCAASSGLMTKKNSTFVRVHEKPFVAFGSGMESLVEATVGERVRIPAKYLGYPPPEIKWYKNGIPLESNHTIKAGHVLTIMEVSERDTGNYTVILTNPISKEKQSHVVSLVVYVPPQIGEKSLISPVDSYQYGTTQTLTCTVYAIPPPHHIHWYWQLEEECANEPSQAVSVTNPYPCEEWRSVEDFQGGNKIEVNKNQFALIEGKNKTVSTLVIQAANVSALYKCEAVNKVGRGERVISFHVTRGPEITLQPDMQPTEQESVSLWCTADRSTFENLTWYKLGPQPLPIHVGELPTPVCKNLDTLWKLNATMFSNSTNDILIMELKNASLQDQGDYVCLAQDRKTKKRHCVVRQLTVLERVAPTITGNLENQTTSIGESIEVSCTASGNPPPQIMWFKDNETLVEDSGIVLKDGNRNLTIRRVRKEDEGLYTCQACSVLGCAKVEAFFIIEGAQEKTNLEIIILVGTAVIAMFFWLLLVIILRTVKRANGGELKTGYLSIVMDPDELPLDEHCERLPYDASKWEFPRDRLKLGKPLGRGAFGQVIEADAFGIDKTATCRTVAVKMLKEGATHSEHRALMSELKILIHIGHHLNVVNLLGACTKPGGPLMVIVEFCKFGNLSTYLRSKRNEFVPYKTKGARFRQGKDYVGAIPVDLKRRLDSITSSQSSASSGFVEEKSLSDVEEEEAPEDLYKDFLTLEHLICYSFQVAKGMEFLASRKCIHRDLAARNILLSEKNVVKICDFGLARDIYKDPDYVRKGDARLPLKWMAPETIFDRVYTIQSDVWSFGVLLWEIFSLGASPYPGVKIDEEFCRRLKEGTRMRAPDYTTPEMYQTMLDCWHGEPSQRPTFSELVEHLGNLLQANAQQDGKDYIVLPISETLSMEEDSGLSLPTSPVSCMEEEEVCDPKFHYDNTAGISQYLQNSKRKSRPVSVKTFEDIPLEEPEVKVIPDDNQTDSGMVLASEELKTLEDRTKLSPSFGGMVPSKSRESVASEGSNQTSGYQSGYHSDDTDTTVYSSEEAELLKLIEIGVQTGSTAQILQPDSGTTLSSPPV
Procedure: as §1

[39] = target: T36, Aurora-A (Homo sapiens, UniProt O14965); experiment: KinaseProfiler selectivity: Aurora-A; format: biochemical
T36 construct: purchased Millipore Co. Ltd. (KinaseProfiler service)
Procedure: as §1

[40] = target: T37, PKCα (Homo sapiens, UniProt P17252); experiment: KinaseProfiler selectivity: PKCα; format: biochemical
T37 construct: purchased Millipore Co. Ltd. (KinaseProfiler service)
Procedure: as §1

[41] = target: T38, FGFR3 (Homo sapiens, UniProt P22607); experiment: KinaseProfiler selectivity: FGFR3; format: biochemical
T38 construct: purchased Millipore Co. Ltd. (KinaseProfiler service)
Procedure: as §1

[42] = target: T39, GSK3β (Homo sapiens, UniProt P49841); experiment: KinaseProfiler selectivity: GSK3β; format: biochemical
T39 construct: purchased Millipore Co. Ltd. (KinaseProfiler service)
Procedure: as §1

[43] = target: T40, Tie2 (Homo sapiens, UniProt Q02763); experiment: KinaseProfiler selectivity: Tie2; format: biochemical
T40 construct: purchased Millipore Co. Ltd. (KinaseProfiler service)
Procedure: as §1

With `C[C@H]1CN(C(=O)CC#N)[C@]12CCN(c1ncnc3[nH]ccc13)C2` [JTE-052] the IC50 [1] was greater than 1 µM, the IC50 [2] was 0.277 ± 0.146 µM and the IC50 [3] was greater than 1 µM. For the same compound, the IC50 [4] was greater than 1 µM, the IC50 [5] was greater than 1 µM and the IC50 [6] was greater than 1 µM. The IC50 [7] was greater than 1 µM, the IC50 [8] was greater than 1 µM and the IC50 [9] was greater than 1 µM. The IC50 [10] was greater than 1 µM, the IC50 [11] was greater than 1 µM and the IC50 [12] was greater than 1 µM. It also gave an IC50 [13] greater than 1 µM, an IC50 [14] greater than 1 µM and an IC50 [15] greater than 1 µM. The IC50 [16] was greater than 1 µM, the IC50 [17] was greater than 1 µM and the IC50 [18] was greater than 1 µM. It also gave an IC50 [19] greater than 1 µM, an IC50 [20] greater than 1 µM and an IC50 [21] greater than 1 µM. For the same compound, the IC50 [22] was greater than 1 µM, the IC50 [23] was greater than 1 µM and the IC50 [24] was greater than 1 µM. The IC50 [25] was greater than 1 µM, the IC50 [26] was greater than 1 µM and the IC50 [27] was greater than 1 µM. It also gave an IC50 [28] of 0.141 µM, an IC50 [29] greater than 1 µM and an IC50 [30] greater than 1 µM. For the same compound, the IC50 [31] was greater than 1 µM, the “inhibition of other kinases in KinaseProfiler” value [32] was “did not inhibit any of the kinases even at the concentration of 1,000 nM, except for ROCK-II” and the IC50 at 3 days [33] was greater than 10 µM. For the same compound, the IC50 [34] was greater than 1 µM, the IC50 [35] was greater than 1 µM and the IC50 [36] was greater than 1 µM. The IC50 [37] was greater than 1 µM, the IC50 [38] was greater than 1 µM and the IC50 [39] was greater than 1 µM. For the same compound, the IC50 [40] was greater than 1 µM, the IC50 [41] was greater than 1 µM and the IC50 [42] was greater than 1 µM. It also gave an IC50 [43] greater than 1 µM.
